Patent EP4603105A1, “PHARMACEUTICAL COMPOSITION CONTAINING CYCLIC COMPOUND HAVING SELECTIVE KRAS INHIBITORY EFFECT AGAINST HRAS AND NRAS” (CHUGAI SEIYAKU KABUSHIKI KAISHA, priority 2022, dated 2024)
Where two headings read alike, the source gives them in different places.

Legend:
[1] = biological target: GDP-bound NRAS wild-type protein (Homo sapiens, UniProt P01111); test: Binding to NRAS by surface plasmon resonance (SPR), KD and KD ratio to KRAS
In short: (§1)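 Captured GDP-RAS (~100–300 RU) was exposed to increasing compound concentrations, 75 s per step, in running buffer with 10 µM GDP, 10 mM MgCl2 and 4% DMSO at pH 7.4.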

[2] = biological target: GDP-bound KRAS wild-type protein (Homo sapiens, UniProt P01116); test: Binding to KRAS by surface plasmon resonance (SPR), dissociation constant KD
Sequence of GDP-bound KRAS wild-type protein (P01116 1-188 isoform P01116-2): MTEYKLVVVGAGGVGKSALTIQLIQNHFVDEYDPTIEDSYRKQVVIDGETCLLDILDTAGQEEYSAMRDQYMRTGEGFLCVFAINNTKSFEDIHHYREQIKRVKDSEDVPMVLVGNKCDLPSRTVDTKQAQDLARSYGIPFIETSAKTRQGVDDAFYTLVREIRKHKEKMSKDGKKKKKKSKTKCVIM
In short: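 Affinity is measured by surface plasmon resonance at 30°C against captured, GDP-loaded RAS carrying a biotinylated Avi tag. Compounds are titrated by single-cycle kinetics, and KD comes from a 1:1 fit.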

[3] = system: human lung cancer strain NCI-H441; test: NCI-H441 cell proliferation inhibitory activity (CellTiter-Glo, 4 days); format: cell-based; conditions: read-out: NCl-H441 IC50
In short: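 Step one: dispense the test compound in serial DMSO dilutions. Step three: add the reagent and measure […].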

HRAS wild-type protein = HRAS wild-type protein (Homo sapiens, UniProt P01112); test: Binding to HRAS by surface plasmon resonance (SPR), KD and KD ratio to KRAS
Sequence of HRAS wild-type protein (P01112 whole entry): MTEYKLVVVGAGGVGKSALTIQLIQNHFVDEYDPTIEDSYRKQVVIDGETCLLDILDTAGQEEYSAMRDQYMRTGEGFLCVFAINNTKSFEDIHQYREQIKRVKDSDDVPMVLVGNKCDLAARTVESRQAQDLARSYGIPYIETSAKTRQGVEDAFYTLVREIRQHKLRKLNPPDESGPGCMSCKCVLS
In short: as §1

[4] = ratio of KD for GDP-bound NRAS wild-type protein to KD for KRAS
[5] = ratio of KD for HRAS wild-type protein to KD for KRAS
[6] = ratio of KD with respect to GDP-bound NRAS wild-type protein to KD with respect to KRAS
[7] = Single Cycle Kinetics, 1:1 binding model
[8] = 50% proliferation inhibitory concentration, four days
[9] = ratio of KD with respect to HRAS wild-type protein to KD with respect to KRAS

Sequence of GDP-bound NRAS wild-type protein (P01111 whole entry): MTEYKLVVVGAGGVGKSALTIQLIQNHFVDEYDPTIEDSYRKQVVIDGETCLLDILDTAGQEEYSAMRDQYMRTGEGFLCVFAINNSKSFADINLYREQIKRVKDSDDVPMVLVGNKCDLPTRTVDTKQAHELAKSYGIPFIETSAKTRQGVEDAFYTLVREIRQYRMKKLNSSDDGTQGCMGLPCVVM

Row | SMILES | NRAS /KRAS [1, 4] | Kd ([2]; Single Cycle Kinetics) [nM] | IC50 ([3]; NCI-H441 cells, 4 days) [nM] | HRAS /KRAS (HRAS wild-type protein; [5]) | Kd ([2]; 1:1 binding model) [nM] | NRAS /KRAS [1, 6] | Kd [2, 7] [nM] | IC50 [3, 8] [nM] | HRAS /KRAS (HRAS wild-type protein; [9])
1 | C=CC[C@H]1C(=O)N(C)[C@H](C(=O)N(C)C)CC(=O)N(C)[C@@H](CCC)C(=O)N[C@@H]([C@@H](C)CC)C(=O)N(C)CC(=O)N(C)[C@H]2C/C=C\CCN(C2=O)[C@@H](Cc2ccc(C(F)(F)F)cc2)C(=O)N(C)CC(=O)N[C@@H](CCc2ccc(C(F)(F)F)c(OC)c2)C(=O)N2C[C@H](OCC)C[C@H]2C(=O)N(C)C2(CCC2)C(=O)N1C [PP3330] | A (a compound having 10 or more and less than 20 is denoted as A) | 1.1 | 80.4 | A (a compound having 10 or more and less than 20 is denoted as A) | – | – | – | – | –
2 | CCO[C@@H]1C[C@H]2C(=O)NC3(CC(C)(C)C3)C(=O)N(C)[C@@H](C(CC)CC)C(=O)N(C)[C@H](C(=O)N(C)C)CC(=O)N(C)[C@@H](COC)C(=O)N[C@@H]([C@@H](C)CC)C(=O)N(C3CC3)CC(=O)N(C)[C@H]3C/C=C\CCN(C3=O)[C@@H](CC3CCC(F)(F)CC3)C(=O)N(C)CC(=O)N[C@@H](CCc3ccc(Cl)c(Cl)c3)C(=O)N2C1 [PP2569] | AA (a compound having 20 or more is denoted as AA) | – | 185 | A (a compound having 10 or more and less than 20 is denoted as A) | 2.8 | – | – | – | –
3 | CCO[C@@H]1C[C@H]2C(=O)NC3(CCC3)C(=O)N(C)[C@@H](C3CCCC3)C(=O)N(C)[C@H](C(=O)N3CCCC3)CC(=O)N(C)[C@@H](CC)C(=O)N[C@@H]([C@@H](C)CC)C(=O)N(C)CC(=O)N(C)[C@H]3C/C=C\CCN(C3=O)[C@@H](CC3CCC(F)(F)CC3)C(=O)N(C)CC(=O)N[C@@H](CCc3cc(F)c(C(F)(F)F)c(F)c3)C(=O)N2C1 [PP1442] | – | – | – | – | – | A (a compound having 10 or more and less than 20 is denoted as A) | 0.13 | 48.3 | A (a compound having 10 or more and less than 20 is denoted as A)
4 | CCCC[C@H]1C(=O)N[C@@H]([C@@H](C)CC)C(=O)N(C2CC2)CC(=O)N(C)[C@H]2C/C=C\CCN(C2=O)[C@@H](Cc2ccc(C(F)(F)F)cc2)C(=O)N(C)CC(=O)N[C@@H](CCc2ccc(C(F)(F)F)c(OC)c2)C(=O)N2C[C@H](OCC)C[C@H]2C(=O)OC2(CCC2)C(=O)N(C)[C@@H](C2CCCC2)C(=O)N(C)[C@H](C(=O)N(C)C)CC(=O)N1C [PP3366] | A (a compound having 10 or more and less than 20 is denoted as A) | 1.1 | 34.3 | A (a compound having 10 or more and less than 20 is denoted as A) | – | – | – | – | –
5 | CCO[C@@H]1C[C@H]2C(=O)NC3(CC(C)(C)C3)C(=O)N(C)[C@@H](C3CCCC3)C(=O)N(C)[C@H](C(=O)N(C)C)CC(=O)N(C)[C@@H](COC)C(=O)N[C@@H]([C@@H](C)CC)C(=O)N(C)CC(=O)N(C)[C@H]3C/C=C\CCN(C3=O)[C@@H](Cc3ccc(C)cc3)C(=O)N(C)CC(=O)N[C@@H](CCc3ccc(C(F)(F)F)c(Cl)c3)C(=O)N2C1 [PP2389] | A (a compound having 10 or more and less than 20 is denoted as A) | – | 21.3 | B (a compound having 3 or more and less than 10 is denoted as B) | 0.079 | – | – | – | –
6 | CC[C@H](C)[C@@H]1NC(=O)[C@H](CC2CCC2)N(C)C(=O)C[C@@H](C(=O)N(C)C)N(C)C(=O)[C@H](C2CCCC2)N(C)C(=O)C2(CCCC2)NC(=O)[C@@H]2CCCN2C(=O)[C@H](CCc2cc(F)c(C(F)(F)F)c(F)c2)NC(=O)CN(C)C(=O)[C@H](Cc2ccc(C(F)(F)F)cc2)N2C[C@H](C)CC[C@@H](C2=O)N(C)C(=O)CN(C)C1=O [PP1386] | – | – | – | – | – | B (a compound having 3 or more and less than 10 is denoted as B) | 0.082 | 4.2 | B (a compound having 3 or more and less than 10 is denoted as B)
7 | CCO[C@@H]1C[C@H]2C(=O)NC3(CCCC3)C(=O)N(C)[C@@H](C(CC)CC)C(=O)N(C)[C@H](C(=O)N3CCCC3)CC(=O)N(C)[C@@H](C)C(=O)N[C@@H]([C@@H](C)CC)C(=O)N(C)CC(=O)N(C)[C@H]3C/C=C\CCN(C3=O)[C@@H](CC3CCCCC3)C(=O)N(C)CC(=O)N[C@@H](CCc3cc(F)c(C(F)(F)F)c(F)c3)C(=O)N2C1 [PP1435] | – | – | – | – | – | A (a compound having 10 or more and less than 20 is denoted as A) | 1.1 | 178 | A (a compound having 10 or more and less than 20 is denoted as A)
8 | CCO[C@@H]1C[C@H]2C(=O)NC3(CC(C)(C)C3)C(=O)N(C)[C@@H](C3CCCC3)C(=O)N(C)[C@H](C(=O)N(C)CC)CC(=O)N(C)[C@@H]([C@@H](C)OC)C(=O)N[C@@H]([C@@H](C)CC)C(=O)N3CCC[C@H]3C(=O)N(C)[C@H]3C/C=C\CCN(C3=O)[C@@H](Cc3ccc(C(F)(F)F)cc3)C(=O)N(C)CC(=O)N[C@@H](CCc3ccc(C(F)(F)F)c(OC)c3)C(=O)N2C1 [PP3170] | A (a compound having 10 or more and less than 20 is denoted as A) | 0.84 | 42.5 | A (a compound having 10 or more and less than 20 is denoted as A) | – | – | – | – | –
9 | CCCOC[C@H]1C(=O)N[C@@H](C2CCCC2)C(=O)N(CCC)CC(=O)N(C)[C@H]2C/C=C\CCN(C2=O)[C@@H](Cc2ccc(C)cc2)C(=O)N(C)CC(=O)N[C@@H](CCc2ccc(Cl)c(C(F)(F)F)c2)C(=O)N2C[C@H](OC(C)C)C[C@H]2C(=O)N(C)C2(CCC2)C(=O)N(C)[C@@H](C(CC)CC)C(=O)N(C)[C@H](C(=O)N(C)C)CC(=O)N1C [PP3501] | AA (a compound having 20 or more is denoted as AA) | 1.1 | 102 | A (a compound having 10 or more and less than 20 is denoted as A) | – | – | – | – | –
10 | CCO[C@@H]1C[C@H]2C(=O)NC3(CCC3)C(=O)N(C)[C@@H](C3CCCC3)C(=O)N(C)[C@H](C(=O)N(C)C)CC(=O)N(C)[C@@H](CC3CCCC3)C(=O)N[C@@H]([C@@H](C)CC)C(=O)N(C)CC(=O)N(C)[C@H]3C/C=C\CCN(C3=O)[C@@H](Cc3ccc(C(F)(F)F)cc3)C(=O)N(C)CC(=O)N[C@@H](CCc3ccc(C(F)(F)F)c(OC)c3)C(=O)N2C1 [PP1248] | – | – | – | – | – | A (a compound having 10 or more and less than 20 is denoted as A) | 0.069 | 7.3 | A (a compound having 10 or more and less than 20 is denoted as A)
11 | CCC[C@H]1C(=O)N[C@@H]([C@@H](C)CC)C(=O)N2CCC[C@H]2C(=O)N(C)[C@H]2C/C=C\CCN(C2=O)[C@@H](Cc2ccc(C(F)(F)F)cc2)C(=O)N(C)CC(=O)N[C@@H](CCc2ccc(C(F)(F)F)c(OC)c2)C(=O)N2CC[C@H](OC)[C@H]2C(=O)N(C)C2(CCC2)C(=O)N(C)[C@@H](C2CCCC2)C(=O)N(C)[C@H](C(=O)N(C)C)CC(=O)N1C [PP3241] | A (a compound having 10 or more and less than 20 is denoted as A) | 0.31 | 10.5 | B (a compound having 3 or more and less than 10 is denoted as B) | – | – | – | – | –
12 | CCC[C@H]1C(=O)N[C@@H]([C@@H](C)CC)C(=O)N(C)CC(=O)N(C)[C@H]2C/C=C\CCN(C2=O)[C@@H](Cc2ccc(C)cc2)C(=O)N(C)CC(=O)N[C@@H](CCc2ccc(C(F)(F)F)c(Cl)c2)C(=O)N2CC3(CC3)C[C@H]2C(=O)N(C)C2(CCC2)C(=O)N(C)[C@@H](C2CCCC2)C(=O)N(C)[C@H](C(=O)N(C)C)CC(=O)N1C [PP3298] | B (a compound having 3 or more and less than 10 is denoted as B) | 0.34 | 3.4 | B (a compound having 3 or more and less than 10 is denoted as B) | – | – | – | – | –
